Laboratory results: patent US12037345B2, “Heterobicyclic compounds for inhibiting the activity of SHP2” (TAIHO PHARMACEUTICAL CO., LTD., priority 2018, dated 2024)
Like-named read-outs stand apart in the source and are kept apart here.

Columns and labels:
[1] = molecular target: SHP2 (Homo sapiens (Human), UniProt Q06124); assay: SHP2 Biochemical Assay (DiFMUP conversion, pIRS1-activated)
Method: SHP2 activity was monitored by measuring the conversion of the surrogate substrate 6,8-difluoromethylumbelliferyl phosphate (DiFMUP) to the fluorescent product, 6,8-difluoromethylumbelliferone (DiFMU).
SHP2 was pre-incubated with test compounds and the activating peptide pIRS1 (H2N-LN(pY)IDLDLV-(PEG)8-LST(pY)ASINFQK-amide) for 30 min, prior to addition of the 6,8-difluoromethylumbelliferyl phosphate (DiFMUP), (Thermo Fisher D6567). Final assay concentrations were 10 pM SHP2, […] pIRS1 peptide, 50 μM DiFMUP, 25 mM Bis-Tris propane, pH 7.0, 150 mM NaCl, 0.05% (v/v) Tween-20, 0.5 mM TCEP and 5% (v/v) DMSO. Rates of reaction were then measured over 30 min by monitoring fluorescence on a BMG Pherastar reader at excitation 360 nm/emission 450 nm. IC50 values were calculated in singlicate from the normalized dose-response plots using four parameter logistic curve fit. The Experiment for each compound was carried out in one time or multiple times, and the IC50 values were shown as a single value (for a compound measured in a single experiment) or an average value (for a compound measured in multiple experiments).

[2] = tested on: pERK (phospho-p44/42 ERK) in HCC827 cells; assay: Cellular pERK Inhibition Assay, Method A (In-Cell Western); assay type: cell-based; settings: Homo sapiens
Method: Cellular pERK Inhibition Assay
pERK levels were determined using the In-Cell Western assay. HCC827 cells (ATCC, Manassas, USA) were seeded into 384-well plates at a density of 1×10^4 cells/well in RPMI1640 medium supplemented with 10% FBS and incubated 24h. Compounds were diluted first in DMSO and then into serum-free medium, before being added to cells in quadruplicate to give a final concentration of 0.2% DMSO. Plates were incubated at 37° C. for the indicated time in a humidified atmosphere of 5% CO2 in air.
Following compound treatment, cells were fixed with formalin neutral buffer solution for 20 minutes at room temperature. Plates were washed three times with 0.1% Triton-X in PBS and cells were blocked for 1 hour with Odyssey blocking buffer (LI-COR, #927-40000). After shaking out blocking buffer, cells were incubated with phospho-p44/42 ERK antibody (Cell Signalling Technology, #4370, 1:200) diluted in Odyssey blocking buffer at 4° C. overnight. Plates were washed again and cells were incubated for 1 hour with Goat anti-Rabbit […] (LI-COR, #926-32211, 1:800) diluted in Odyssey blocking buffer. After washing and removing wash solution completely using a centrifuge machine, cells were scanned on the Odyssey (LI-COR), following the manufacturer's instructions. The average signal from blank wells (no cells added) was subtracted from the signals from each sample well. Levels of pERK were then expressed as percent of control, using DMSO treated samples as control. The relative IC50 values were calculated in quadruplicate from the normalized dose-response plots using four parameter logistic curve fit. The Experiment for each compound was carried out in one time or multiple times, and the IC50 values were shown as a single value (for a compound measured in a single experiment) or an average value (for a compound measured in multiple experiments).

[3] = Table 19, head prints unit as "-M"
[4] = Table 19, head prints unit as "-M", read-out: pERK (IC50) Method A
[5] = Table 20, read-out: pERK (IC50, μM) Method A

Sequence of SHP2 (Q06124 whole entry): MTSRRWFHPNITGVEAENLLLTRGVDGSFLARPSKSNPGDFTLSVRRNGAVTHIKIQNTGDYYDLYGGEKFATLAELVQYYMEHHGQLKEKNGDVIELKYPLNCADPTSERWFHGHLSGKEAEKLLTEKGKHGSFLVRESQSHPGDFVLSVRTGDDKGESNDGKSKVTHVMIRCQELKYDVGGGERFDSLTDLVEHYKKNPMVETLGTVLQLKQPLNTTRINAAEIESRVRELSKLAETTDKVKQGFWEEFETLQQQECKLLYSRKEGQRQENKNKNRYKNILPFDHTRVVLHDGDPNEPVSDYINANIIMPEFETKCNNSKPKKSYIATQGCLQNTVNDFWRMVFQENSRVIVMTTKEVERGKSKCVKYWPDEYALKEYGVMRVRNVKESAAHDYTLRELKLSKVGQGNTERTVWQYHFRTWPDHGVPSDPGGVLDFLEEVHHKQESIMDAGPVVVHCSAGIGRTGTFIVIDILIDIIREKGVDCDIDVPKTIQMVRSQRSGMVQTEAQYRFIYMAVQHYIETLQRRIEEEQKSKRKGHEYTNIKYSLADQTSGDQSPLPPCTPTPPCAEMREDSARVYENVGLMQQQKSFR

Row | SMILES | IC50 [1, 3] [nM] | IC50 [2, 4] [µM] | IC50 ([1]; Table 20) [nM] | IC50 [2, 5] [µM]
1 | Cn1cc2c(Cl)c(-c3c[nH]c4nc(N5CCC6(CCCN6)CC5)n(C)c(=O)c34)ccc2n1 [Example 38, 5-(4-chloro-2-methyl-2H-indazol-5-yl)-3-methyl-2-(1,8-diazaspiro[4.5]decan-8-yl)-3,7-dihydro-4H-pyrrolo[2,3-d]pyrimidin-4-one] | 74 | 1.4 | – | –
2 | Cn1cc2c(Cl)c(-c3c[nH]c4nc(N5[C@H]6CC[C@@H]5[C@@H](N)C6)n(C)c(=O)c34)ccc2n1 (racemic) [Example 164, 2-(rac-(1R,2S,4S)-2-amino-7-azabicyclo[2.2.1]heptan-7-yl)-5-(4-chloro-2-methyl-2H-indazol-5-yl)-3-methyl-3,7-dihydro-4H-pyrrolo[2,3-d]pyrimidin-4-one] | – | – | 170 | 6.3
3 | Cn1cc2c(Cl)c(-c3c[nH]c4nc(N5CC[C@@H](CN)C5)n(C)c(=O)c34)ccc2n1 [Example 63, (S)-2-(3-(aminomethyl)pyrrolidin-1-yl)-5-(4-chloro-2-methyl-2H-indazol-5-yl)-3-methyl-3,7-dihydro-4H-pyrrolo[2,3-d]pyrimidin-4-one] | 110 | 4.3 | – | –
4 | CCn1cc2c(Cl)c(-c3n[nH]c4nc(N5[C@H]6CC[C@@H]5[C@H](NC)C6)n(C)c(=O)c34)ccc2n1 [Example 118, 3-(4-chloro-2-ethyl-2H-indazol-5-yl)-5-methyl-6-((1R,2R,4S)-2-(methylamino)-7-azabicyclo[2.2.1]heptan-7-yl)-1,5-dihydro-4H-pyrazolo[3,4-d]pyrimidin-4-one] | 49 | 1.1 | – | –
5 | CCn1nc2ccc(-c3c[nH]c4nc(N5[C@H]6CC[C@@H]5[C@H](N)C6)n(C)c(=O)c34)c(Cl)c2c1CO [Example 110, 2-((1R,2R,4S)-2-amino-7-azabicyclo[2.2.1]heptan-7-yl)-5-(4-chloro-2-ethyl-3-(hydroxymethyl)-2H-indazol-5-yl)-3-methyl-3,7-dihydro-4H-pyrrolo[2,3-d]pyrimidin-4-one] | 14 | 1.7 | – | –
6 | Cc1nc2ccc(-c3c[nH]c4nc(N5C6CCC5CNC6)n(C)c(=O)c34)c(Cl)c2s1 [Example 90, 2-(3,8-diazabicyclo[3.2.1]octan-8-yl)-5-(7-chloro-2-methylbenzo[d]thiazol-6-yl)-3-methyl-3,7-dihydro-4H-pyrrolo[2,3-d]pyrimidin-4-one] | 12 | 0.74 | – | –
7 | Cn1c(N2[C@H]3CC[C@@H]2[C@H](N)C3)nc2[nH]cc(-c3ccc4nn(CF)c(Cl)c4c3Cl)c2c1=O [Example 103, 2-((1R,2R,4S)-2-amino-7-azabicyclo[2.2.1]heptan-7-yl)-5-(3,4-dichloro-2-(fluoromethyl)-2H-indazol-5-yl)-3-methyl-3,7-dihydro-4H-pyrrolo[2,3-d]pyrimidin-4-one] | 2 | 0.026 | – | –
8 | Cn1cc2c(Cl)c(-c3c[nH]c4nc(N5C[C@H]6CC[C@@H](C5)[C@@H]6N)n(C)c(=O)c34)ccc2n1 [Example 24, 2-(exo-8-amino-3-azabicyclo[3.2.1]octan-3-yl)-5-(4-chloro-2-methyl-2H-indazol-5-yl)-3-methyl-3,7-dihydro-4H-pyrrolo[2,3-d]pyrimidin-4-one] | 18 | 0.14 | – | –
9 | CCn1cc2c(Cl)c(-c3c[nH]c4nc(N5[C@@H]6CC[C@H]5C[C@@H](N)C6)n(C)c(=O)c34)ccc2n1 [Example 5, 2-(endo-3-amino-8-azabicyclo[3.2.1]octan-8-yl)-5-(4-chloro-2-ethyl-2H-indazol-5-yl)-3-methyl-3,7-dihydro-4H-pyrrolo[2,3-d]pyrimidin-4-one] | 7.5 | 0.16 | – | –
10 | Cn1cc2c(Cl)c(-c3c[nH]c4nc(N5CCNCC5)n(C)c(=O)c34)ccc2n1 [Example 39, 5-(4-chloro-2-methyl-2H-indazol-5-yl)-3-methyl-2-(piperazin-1-yl)-3,7-dihydro-4H-pyrrolo[2,3-d]pyrimidin-4-one] | 66 | 0.7 | – | –
11 | Cn1cc2c(Cl)c(-c3c[nH]c4nc(N5C[C@H]6C[C@@H](C5)[C@@H]6N)n(C)c(=O)c34)ccc2n1 [Example 33, 2-(exo-6-amino-3-azabicyclo[3.1.1]heptan-3-yl)-5-(4-chloro-2-methyl-2H-indazol-5-yl)-3-methyl-3,7-dihydro-4H-pyrrolo[2,3-d]pyrimidin-4-one] | 47 | 0.48 | – | –
12 | Cn1nc2ccc(-c3c[nH]c4nc(N5[C@H]6CC[C@@H]5[C@@H](F)[C@@H](N)C6)n(C)c(=O)c34)c(Cl)c2c1Cl [Example 163, 2-((1R,2S,3S,5S)-3-amino-2-fluoro-8-azabicyclo[3.2.1]octan-8-yl)-5-(3,4-dichloro-2-methyl-2H-indazol-5-yl)-3-methyl-3,7-dihydro-4H-pyrrolo[2,3-d]pyrimidin-4-one] | – | – | 2 | 0.012
13 | CN(C)C(=O)CCn1nc2ccc(-c3c[nH]c4nc(N5C6CCC5CNC6)n(C)c(=O)c34)c(Cl)c2c1Cl [Example 89, 3-(5-(2-(3,8-diazabicyclo[3.2.1]octan-8-yl)-3-methyl-4-oxo-4,7-dihydro-3H-pyrrolo[2,3-d]pyrimidin-5-yl)-3,4-dichloro-2H-indazol-2-yl)-N,N-dimethylpropanamide] | 14 | 0.54 | – | –
14 | Cn1cc2c(Cl)c(-c3c[nH]c4nc(N5C6CNCC5COC6)n(C)c(=O)c34)ccc2n1 [Example 85, 2-(3-oxa-7,9-diazabicyclo[3.3.1]nonan-9-yl)-5-(4-chloro-2-methyl-2H-indazol-5-yl)-3-methyl-3,7-dihydro-4H-pyrrolo[2,3-d]pyrimidin-4-one] | 13 | 0.64 | – | –
15 | Cn1c(N2[C@@H]3CC[C@H]2C[C@@H](N)C3)nc2[nH]cc(-c3ccc4nn(C(C)(C)C)cc4c3Cl)c2c1=O [Example 9, 2-(endo-3-amino-8-azabicyclo[3.2.1]octan-8-yl)-5-(2-(tert-butyl)-4-chloro-2H-indazol-5-yl)-3-methyl-3,7-dihydro-4H-pyrrolo[2,3-d]pyrimidin-4-one] | 94 | 1.2 | – | –
16 | CCn1nc2ccc(-c3c[nH]c4nc(N5[C@H]6CC[C@@H]5[C@H](N)C6)n(C)c(=O)c34)c(Cl)c2c1C(F)F [Example 109, 2-((1R,2R,4S)-2-amino-7-azabicyclo[2.2.1]heptan-7-yl)-5-(4-chloro-3-(difluoromethyl)-2-ethyl-2H-indazol-5-yl)-3-methyl-3,7-dihydro-4H-pyrrolo[2,3-d]pyrimidin-4-one] | 6.5 | 0.12 | – | –
17 | CCn1cc2c(Cl)c(-c3c[nH]c4nc(N5CCC6(CCC[C@H]6N)CC5)n(C)c(=O)c34)ccc2n1 [Example 11, (R)-2-(1-amino-8-azaspiro[4.5]decan-8-yl)-5-(4-chloro-2-ethyl-2H-indazol-5-yl)-3-methyl-3,7-dihydro-4H-pyrrolo[2,3-d]pyrimidin-4-one] | 6.3 | 0.053 | – | –
18 | C[C@@H]1OCC2(CCN(c3nc4[nH]cc(-c5ccc6nn(C)cc6c5Cl)c4c(=O)n3C)CC2)[C@@H]1N [Example 59, 2-((3S,4S)-4-amino-3-methyl-2-oxa-8-azaspiro[4.5]decan-8-yl)-5-(4-chloro-2-methyl-2H-indazol-5-yl)-3-methyl-3,7-dihydro-4H-pyrrolo[2,3-d]pyrimidin-4-one] | 5.5 | 0.048 | – | –
19 | CN[C@@H]1C[C@@H]2CC[C@H]1N2c1nc2[nH]nc(-c3ccc4ncsc4c3Cl)c2c(=O)n1C [Example 123, 3-(7-chlorobenzo[d]thiazol-6-yl)-5-methyl-6-((1R,2R,4S)-2-(methylamino)-7-azabicyclo[2.2.1]heptan-7-yl)-1,5-dihydro-4H-pyrazolo[3,4-d]pyrimidin-4-one] | 18 | 0.17 | – | –
20 | CN[C@@H]1C[C@@H]2CC[C@H]1N2c1nc2[nH]cc(-c3ccc4nn(C)cc4c3Cl)c2c(=O)n1C [Example 97, 5-(4-chloro-2-methyl-2H-indazol-5-yl)-3-methyl-2-((1R,2R,4S)-2-(methylamino)-7-azabicyclo[2.2.1]heptan-7-yl)-3,7-dihydro-4H-pyrrolo[2,3-d]pyrimidin-4-one] | 7.7 | 0.082 | – | –
